According to patent US6699686B1, “Modified nuclear glucocorticoid receptor, fusion protein, and DNA fragments coding for said receptor and said fusion protein” (Association pour le Development de la Recherche en …, priority 1996, dated 2004):

Target: T1, Cre-LBD[GR(I747/T)] (Homo sapiens, UniProt P04150, I747T)
T1 construct: the region containing the mutated LBD of HG1 [aa 500-777]; Cre recombinase aa 1-343 (bacteriophage P1); F region of the human estrogen receptor (aa 553-595); expressed in transfected cells
T1 sequence (P04150 500-777 I747T): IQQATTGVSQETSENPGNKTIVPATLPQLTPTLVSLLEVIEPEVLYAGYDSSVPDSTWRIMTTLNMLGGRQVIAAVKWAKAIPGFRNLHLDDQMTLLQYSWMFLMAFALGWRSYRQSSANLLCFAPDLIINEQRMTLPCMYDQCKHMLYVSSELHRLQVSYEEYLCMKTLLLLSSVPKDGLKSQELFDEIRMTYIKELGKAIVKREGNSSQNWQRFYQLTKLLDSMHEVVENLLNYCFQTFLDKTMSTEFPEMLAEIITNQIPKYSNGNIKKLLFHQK
Experiment: PCR analysis of recombinase activity in RXRα+/−(LNL):Cre-GR(I747/T) line constitutively expressing the chimeric protein
Format: cell-based
Settings: for recombinase activity: ligand concentration ranging from 10^−9 to 10^−6 M; for recombinase activity (191 bp PCR fragment of recombinant allele): ligand 10^−6 M, 72 hours, expression cassette integrated into the genome
Method: The resistant clones were obtained according to the procedure described by Metzger et al. (28).
The DNA amplifications were carried out using the “Polymerase Chain Reaction” (PCR) technique according to the protocol described by Chen and Evans (60). The primers used are: SB211 and PZ105, having respectively as nucleotide sequence 5′-[…]-3′ (SEQ ID NO: 10) and 5′-[…]-3′ (SEQ ID NO: 11). After denaturation for 8 min at 94° C., 2.5 units of Taq polymerase are added. The amplification is carried out by performing 35 cycles (30 sec. at 94° C., 30 sec. at 50° C.) followed by one cycle (30 sec. at 94° C., 30 sec. at 50° C., 5 min at 72° C.), the product of which is stored at 4° C.
The products of the reactions were separated on polyacrylamide (10%) or agarose (2.5%) gel. The DNA was visualized by UV followed by ethidium bromide staining, or by Southern blotting (42).
The amplified DNA was separated on acrylamide gel and stained with ethidium bromide. Lanes 1, 2, 3 and 4 contain respectively the PCR products produced with DNA extracted from wild-type (WT) F9 cells, RXRα^+/−(LNL), RXRα^+/−(L) cells and C2RXRα^+(L)/−(L) cells (73). Lane 8 contains a size marker (1 kb ladder; GibcoBRL).
The amplified DNA was separated on agarose gel and analyzed according to the Southern technique. The amplified fragments corresponding to the wild-type and recombinant alleles were detected by hybridization with the aid of the synthetic oligonucleotide (5′-[…]-3′) (SEQ ID NO: 12), radiolabeled at the 5′ end with T4 polynucleotide kinase. The signal was visualited and quantified with the aid of a “phosphoimager” (Fujix bas2000).
The recombinant allele was detected according to the procedure described in FIG. 8. The amplified DNA was separated on agarose gel and analyzed according to the Southern technique. The amplified fragments corresponding to the recombinant allele were detected by autoradiography following hybridization with the synthetic oligonucleotide 5′-[…]-3′ (SEQ ID NO: 13), (containing a loxP site) radiolabeled with Phosphorus^32 at the 5′ end by T4 polynucleotide kinase.
The recombinase activity was tested following a treatment of these cells with Dex (10^−6 M) for 72 hours.

Structure (SMILES)	recombinase activity	recombinase activity (191 bp PCR fragment of recombinant allele)	recombinase activity (191 bp PCR fragment of recombinant allele) (listed as Dex)
C[C@]12CCC(=O)C=C1CC[C@@H]1[C@@H]2[C@@H](O)C[C@]2(C=O)[C@@H](C(=O)CO)CC[C@@H]12 [Aldosterone, aldosterone]	No recombinase activity	–	–
C[C@]12C[C@H](O)[C@H]3[C@@H](CCC4=CC(=O)CC[C@@]43C)[C@@H]1CC[C@@H]2C(=O)CO [Corticosterone, corticosterone]	No recombinase activity	–	–
C[C@]12CCC(=O)C=C1CC[C@@H]1[C@@H]2[C@@H](O)C[C@@]2(C)[C@H]1CC[C@]2(O)C(=O)CO [Cortisol, cortisol]	No recombinase activity	inactive	–
C[C@@H]1C[C@H]2[C@@H]3CCC4=CC(=O)C=C[C@]4(C)[C@@]3(F)[C@@H](O)C[C@]2(C)[C@@]1(O)C(=O)CO [Dexamethasone, dexamethasone]	–	–	active
